# Reference: US7381750B2, “Amino-phenoxymethyl-benzamide opioid receptor antagonists” (Eli Lilly and Company, priority 2004, dated 2008)
# Legend:
# [1] = target: T1, cloned human mu opioid receptor (Homo sapiens, UniProt P35372); assay: GTP-γ-S binding assay, antagonist mode (mu); assay type: biochemical; conditions: functional antagonist potency vs DAMGO 1 micromolar; membranes, [35S]GTP-γ-S SPA; Cheng-Prusoff
# T1 construct: expressed in transfected cells
# Description: (§1) The functional antagonist potency (Kb) of the sample compounds was determined using the GTPγS binding assay. GTPgS-based functional assays provide an in vitro measure of the activity of opioid agonists and antagonists. Opioid reference compounds or test compound are incubated with membrane homogenate from cells expressing the cloned human mu, kappa or delta opioid receptor and radiolabeled [35S]GTPgS. If the compound activates the opioid receptor, an increase in the binding of radiolabeled GTPgS is observed. […] These tests provide an in vitro measurement of the activity of the compound at human opioid receptors.
# (§2) An SPA-based GTP-γ-S assay format was developed based on previous opioid (Emmerson et al., J. Pharm Exp Ther 278, 1121, 1996; Horng et al., Society for Neuroscience Abstracts, 434.6, 2000) and muscarinic (DeLapp et al., JPET 289, 946, 1999) assay formats. Membranes were resuspended in 20 mM HEPES, 100 mM NaCl, 5 mM MgCl2, 1 mM DTT, and 1 mM EDTA. Fifty (50) […] of GTP-γ-[35S], compound, membrane suspension (20 microgram/well), and wheat germ agglutinin coated SPA beads (1 mg/well) were added to clear bottom 96 well assay plates. GDP ([…]) was added to the membrane solution prior to addition to the assay plates. Plates were sealed and incubated for four hours at room temperature then placed in a refrigerator overnight to allow the beads to settle. Signal stability at 4° C. was determined to be >60 hours. Plates were warmed to room temperature and counted in a Wallac Microbeta scintillation counter. For antagonist assays, specific agonists were added at the following concentrations: (MOR) DAMGO 1 micromolar, (DOR) DPDPE 30 nM, (KOR) U69593 300 nM. Kb's were determined by Cheng-Prusoff equation (see Cheng and Prusoff, Biochem. Pharmacol. 22, 3099, 1973).
# [2] = target: T2, cloned human delta opioid receptor (Homo sapiens, UniProt P41143); assay: GTP-γ-S binding assay, antagonist mode (delta); assay type: biochemical; conditions: functional antagonist potency vs DPDPE 30 nM; membranes, [35S]GTP-γ-S SPA; Cheng-Prusoff
# T2 construct: expressed in transfected cells
# T2 sequence (P41143 whole entry): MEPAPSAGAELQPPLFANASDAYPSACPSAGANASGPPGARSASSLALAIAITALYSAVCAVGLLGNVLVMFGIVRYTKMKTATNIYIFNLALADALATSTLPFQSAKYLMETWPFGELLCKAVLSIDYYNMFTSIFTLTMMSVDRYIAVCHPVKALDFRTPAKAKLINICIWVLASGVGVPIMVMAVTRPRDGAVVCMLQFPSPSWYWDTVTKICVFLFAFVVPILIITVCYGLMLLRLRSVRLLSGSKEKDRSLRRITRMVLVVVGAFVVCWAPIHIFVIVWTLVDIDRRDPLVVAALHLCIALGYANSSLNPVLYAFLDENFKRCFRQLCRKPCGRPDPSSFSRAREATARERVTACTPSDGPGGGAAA
# Description: as §1, §2
# T1 sequence (P35372 whole entry): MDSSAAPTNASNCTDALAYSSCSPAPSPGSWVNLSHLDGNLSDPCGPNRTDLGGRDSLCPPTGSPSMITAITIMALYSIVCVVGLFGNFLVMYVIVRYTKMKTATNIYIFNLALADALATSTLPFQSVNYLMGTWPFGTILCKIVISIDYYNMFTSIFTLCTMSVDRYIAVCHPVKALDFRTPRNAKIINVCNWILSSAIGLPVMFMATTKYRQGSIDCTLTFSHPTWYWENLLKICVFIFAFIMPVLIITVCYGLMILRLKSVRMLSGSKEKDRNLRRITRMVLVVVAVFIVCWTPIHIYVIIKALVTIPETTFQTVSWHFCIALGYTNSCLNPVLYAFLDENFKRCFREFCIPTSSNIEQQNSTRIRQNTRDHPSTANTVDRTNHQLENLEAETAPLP
Kb [1] [nM],Kb [2] [nM],Structure (SMILES)
> 21,> 41,"CC(C)CCNCc1ccc(OCc2cccc(C(N)=O)c2)cc1 [Example 1, 3-{4-[(3-Methyl-butylamino)-methyl]-phenoxymethyl}-benzamide]"
> 23,> 67,"CC(C)CCNCc1ccc(COc2ccc(C(N)=O)cc2)cc1 [Example 4, 4-{4-[(3-Methyl-butylamino)-methyl]-benzyloxy}-benzamide]"
> 23,> 67,"CC(C)CCNCc1ccc(OCCc2ccc(C(N)=O)cc2)cc1 [Example 5, 4-(2-{4-[(3-Methyl-butylamino)-methyl]-phenoxy}-ethyl)-benzamide]"
62.9,337,"CC(C)CCNCc1ccc(OCc2ccc(C(N)=O)cc2)cc1 [Example 2, 4-{4-[(3-Methyl-butylamino)-methyl]-phenoxymethyl}-benzamide]"
